The values that follow come from patent publication US6906179B2, “Antibody to SNIP1” (The General Hospital Corporation, priority 1999, dated 2005).

Where two headings read alike, the source gives them in different places. *1 amine or outer side, *2 acyl side, *3 side chain or, on linkers, in order; H or OH if unused. Where a SMILES comes first, the peptide text is derived from it. Bridges are numbered along the chain shown (N, C = ends). Roman numbers before positions name the chains, in order. [ ]: non-standard residue; d: D form. Actinocin(9to1) = Cc1c2oc3c(C)ccc(C(=O)[*:1])c3nc-2c(C(=O)[*:2])c(N)c1=O; NMeV = CN[C@H](C(=O)O)C(C)C; Sar = CNCC(=O)O

The term EC50 denotes the concentration giving half of the maximal effect.

For one experiment, the system named is SNIP-1 protein level. The experiment is described as follows: ALK3Q233D-induced degradation of SNIP-1 in transfected COS cells, Western blot. It counts as cell-based. The following applies: inhibitors added 10 hours before cell lysis; ALK3Q233D transfected COS cells. An excerpt:
The novel Smad1 interactor is a nuclear proteip (termed as Smad1 Nuclear Interactor Protein 1, SNIP-1, SEQ ID No. 3), with a carboxyterminal domain that is highly homologous to the aminoterminus of the nuclear inhibitor of protein phosphatase 1 (NIPP-1) (Wang & Lechleider, unpublished) (FIG. 31A & C). NIPP-1 (VanEynde et al., 1995) is known to be rapidly processed into smaller heat-stable intermediates, a process that may be mediated by proteasome (see Discussion in Jagiello et al., 1995). SNIP-1 is a strong interactor of Smad1, that also binds to both antizyme and HsN3 in the yeast two-hybrid assays (FIG. 311B).
Forty-eight hours after transfection, COS cells were lysed in an equal volume of lysis buffer (300 ul/plate), and the total protein concentration of each sample was measured. No major difference in protein concentration was detected among the lysates. The protein level of SNIP-1 in 100 ug of total protein lysate was determined by Western blot using anti-T7 monoclonal antibody. […] Such a decrease is dependent upon the coexpression of Smad1, DPC4 and antizyme, since replacing each of these three proteins with an unrelated protein (β galactosidase) abolishes such a decrease in ALK3Q233D transfected cells (FIG. 31D, top panel, lanes 9-14). […] The total amount of proteins in the tested lanes was normalized before loading, and equal loading was confirmed by Western blot using anti-a tubulin (FIG. 31D, bottom panel).
To determine whether the decrease in the level of SNIP-1 protein level is caused by proteasome mediated degradation, we used inhibitors of the proteasome. Proteasome inhibitors that selectively block different proteolytic activities of the proteasome are powerful tools for studying the role of proteasomes in many aspects of cell growth, differentiation and apoptosis (Hilt et al., 1993; Palomebella et al., 1994; Figueiredo-Pereira et al., 1994; Thraenckner et al., 1994; Read et al., 1995; Grimm et al., 1996, for reviews, see Coux et al., 1996). […]
Background: A western blot detects proteins with antibodies after separation by electrophoresis.

A further experiment has as its system rat sympathetic neurons. In words: OP-1 induced dendritic growth of rat sympathetic neurons. It is filed as cell-based. The note with it: for inhibition of OP-1 induced dendritic growth: reversible peptidyl aldehyde inhibitors. How it is done:
If Smad1 and DPC4 signal through proteasome mediated proteolysis, proteasome inhibitors should block the signaling of BMPs. We thus directly tested the effects of the proteasome inhibitors on the signaling pathways of BMPs that signal via Smad1 activation. […] The EC50 for the inhibitory activity of lactacystin was ˜100 nM and maximal effects were obtained with 4-6 hour pretreatments (not shown).
To determine the time course of sensitivity to lactacystin with respect to the signaling pathway of OP-1, lactacystin was added to the media at various time points after the addition of OP-1 (FIG. 32, bottom panel B).

Another experiment has as its system HEF1 protein level. The experiment is described as follows: Smad3-induced proteasomal degradation of HEF1 in 293 cells. It is filed as cell-based. The following applies: for Smad3-induced reduction (degradation) of HEF1 protein level: 293 cells, presence or absence of type I receptors. An excerpt: Two different forms of HEF1, p115HEF1 and p105HEF1, have been previously reported to be derived from differential phosphorylation (Law et al., 1996, Mol. Cell. Boil. 16: 3327; Minegishi et al., 1996, J. Exp. Med. 184: 1365; Lae et al., 1998, supra). Both forms of HEF1 were detected at a similar level in 293 cells after HEF1 transfection for 24 hrs (data not shown). However, p115HEF1 was the predominant form that associates with Smad3, and to a much lesser extent, with Smad1 and Smad2. Neither p115HEF1 nor p105HEF1 was detected in the immunoprecipitates of Smad4.
It was tested whether the observed reduction of HEF1 level by Smad3 is regulated by TGF-β and activin type I receptor activation and whether the reduction is mediated by proteasomal degradation. The Smad3-mediated reduction of HEF1 protein level was further enhanced in the presence of the overexpressed wildtype TGF-β type I receptor and wildtype activin type I receptor, as well as the constitutively active mutant TGF-β type I receptor (R4T204D) and the activated mutant activin type I receptor (R2T206D)). […]
Like other Smad family proteins, Smad3 can be divided into three subdomains: an amino-terminal MH1 domain, a central linker region and a carboxyl-terminal MH2 domain The N-terminal MH1 domain of Smad3 (Smad3N) has the ability to bind to specific DNA sequences (Massague, 1998, supra; Derynck et al., 1998, Cell 95: 737; Wrana, 2000, Cell 100: 189), whereas the C-terminal MH2 domain interacts with the TGF-β type I receptor as well as multiple transcriptional regulators (Massague, 1998, supra; Derynck, 1998, supra; Wrana, 2000, supra). […] In cells that were not treated with LLnL, p115HEF1 and smaller amount of p105HEF1 were detected in the immunoprecipitates of Smad3N, Smad3C and full length Smad3, with the strongest HEF1 signal detected in the immunoprecipitates of Smad3C. […] In fact, when LLnL stabilizes HEF1, the highest amount of HEF1 was detected in the immunoprecipitates of full length Smad3. […]

The subject of a further experiment is endogenous HEF1. In words: TGF-β regulation of endogenous HEF1 in A549 lung carcinoma cells. It counts as cell-based. As for the experimental part:
In A549 lung carcinoma cells, which predominantly express p115HEF1, a decrease of endogenous p115HEF1 was detected after 15 min exposure to TGF-β. Furthermore, LLnL was able to block the TGF-β induced decrease of endogenous HEF1, indicating the involvement of the proteasome in this event. The change of p105HEF1 in response to TGF-β was also observed, but not as apparent as p115HEF1 due to the very low level of p105HEF1 in this cell line. It was noted that the steady-state level of both p115HEF1 and p105HEF1 increased after 3 hrs of TGF-β stimulation. […] To directly test this, we performed a time-course Northern blot on HEF1 mRNA isolated from A549 cells treated with TGF-β for different time periods. […] Thus, TGF-β down-regulates HEF1 protein level via proteasomal degradation and also induces HEF1 mRNA level via transcriptional activation, which may serve as a negative feedback mechanism to restore HEF1 protein level.

For experiment [1], the system named is biological activities of BMPs and TGF-beta. In words: Inhibition of the biological activities of BMPs and TGF-beta (summary statement).
The subject of the next experiment is proteasome. The note with it: LLnL versus LLM; cited from earlier work.
Experiment [2] has as its system calpain, cathepsin B, chymotrypsin, trypsin and papain. The following applies: cited from earlier work.
Experiment [3] concerns ischemic brain injury. The following applies: single ICV injection of 1 μg/kg at 2, 4 or 6 hour before; assessed 48 hours after injury; cited from earlier work.
The test system of experiment [4] is ischemic brain injury. The following applies: cited from earlier work.
Experiment [5] has as its system ischemic brain injury. The note with it: cited from earlier work. The source holds these as a separate data set.

Take “N-acetyl-L-Leucinyl-L-Leucinal-L-norleucinal [LLnL]”: in the experiment on SNIP-1 protein level, the “ALK3Q233D induced decrease of SNIP-1 protein level” value (“ALK3Q233D induced decrease” below) is reported as “reversed”. Also, the “inhibition of OP-1 activity, relative concentration” value in the experiment with rat sympathetic neurons (LLnL versus LLM) is reported as “inhibited OP-1 activity at lower concentrations than LLM”. In addition, the “inhibition of OP-1 induced dendritic growth” value in the experiment with rat sympathetic neurons is reported as “Inhibition of OP-1 induced dendritic growth was also observed”. The “Smad3-induced reduction (degradation) of HEF1 protein level” value with HEF1 protein level was “able to block”. Besides, the “Smad3N-mediated reduction of p115HEF1” value in the experiment on HEF1 protein level (HEF1 co-expressed with Smad3N) is listed as “blocked”. In addition, the “TGF-β induced decrease of endogenous HEF1” value in the experiment with endogenous HEF1 is recorded as “able to block”. For the same compound, in experiment [1], the “biological activities of BMPs and TGF-beta” value is reported as “able to inhibit”. In addition, the “potency as inhibitor of proteasome activity” value in the experiment on proteasome is “more potent inhibitor of proteasome activity than LLM”.

On to `CC(=O)N[C@@H](CSC(=O)[C@]1([C@@H](O)C(C)C)NC(=O)[C@H](C)[C@@H]1O)C(=O)O` [lactacystin], for which the “ALK3Q233D induced decrease” value in the experiment with SNIP-1 protein level is given as “reversed”. In addition, in the experiment with rat sympathetic neurons (Sympathetic neuron, rat sympathetic neurons, read-out: EC50 for the inhibitory activity on OP-1 induced dendritic growth), the EC50 is about 100 nM. Besides, the “OP-1 induced dendritic growth” value in the experiment with rat sympathetic neurons (added later than 3 hrs after OP-1) is “resistance to the inhibitory effects developed after 3 hrs and are apparent after 8 hrs”; in the experiment with rat sympathetic neurons (added within 3 hrs of OP-1 exposure) it was “fully inhibited”. Moreover, the “ability to form dendrites in the presence of OP-1 or BMP-6” value with rat sympathetic neurons (pretreatment for 4 hours) is on record as “concentration-dependent decrease”. For the same compound, in the experiment on rat sympathetic neurons (rat sympathetic neurons), the “axonal growth or cell survival” value is given as “did not affect”. Further, in the experiment with HEF1 protein level, the “Smad3-induced reduction (degradation) of HEF1 protein level” value is “blocked”. For the same compound, the “biological activities of BMPs and TGF-beta” value in [1] was “able to inhibit”. In [2], the “activity of other proteases” value is reported as “does not inhibit”.

For `CSCCC(C=O)NC(=O)C(CC(C)C)NC(=O)C(CC(C)C)NC(C)=O` (stereo not drawn) [LLM] (Ac-Leu-Leu-Met-aldehyde; configuration not given here), in the experiment on SNIP-1 protein level, the “ALK3Q233D induced decrease” value is recorded as “reversed”. For the same compound, the “inhibition of OP-1 induced dendritic growth” value with rat sympathetic neurons is reported as “Inhibition of OP-1 induced dendritic growth was also observed”.

For the compound `Cc1c2oc3c(C)ccc(C(=O)N[C@@H]4C(=O)N[C@H](C(C)C)C(=O)N5CCC[C@H]5C(=O)N(C)CC(=O)N(C)[C@@H](C(C)C)C(=O)O[C@@H]4C)c3nc-2c(C(=O)N[C@@H]2C(=O)N[C@H](C(C)C)C(=O)N3CCC[C@H]3C(=O)N(C)CC(=O)N(C)[C@@H](C(C)C)C(=O)O[C@@H]2C)c(N)c1=O` [actinomycin D, reference compound] (I: T[dV]P[Sar][NMeV] / II: T[dV]P[Sar][NMeV]; ester I:1-I:C, II:1-II:C; linker I:N-II:N via Actinocin(9to1)), the “increase of steady-state p115HEF1 and p105HEF1 after 3 hrs of TGF-β stimulation” value with endogenous HEF1 is on record as “can be inhibited”.

In the case of “TGF-β1: prototypical member of the TGFβ family of cytokines, exogenously administered”, the “decrease in ischemic area of the neocortex” value in the experiment with ischemic brain injury [3] is “≈ 10%”. For the same compound, the neuroprotection result was “no neuroprotection” with ischemic brain injury [4] (0.5 or 50 ng ICV) and “did not provide significant neuroprotection” in the experiment on ischemic brain injury [5] (2 or 50 ng on the same schedule). For the same compound, the “CA1 pyramidal cell survival” value with ischemic brain injury [4] (same amount (4 ng) by ICV) is reported as 48%. In the experiment with ischemic brain injury [4] (single 4 ng intrahippocampal injection 1 h prior to TFGI, assessed 7 days after), the pyramidal cell survival is 50%. Besides, the “deficits in water maze learning ability and asymmetry in somatosensory functions” value in the experiment on ischemic brain injury [5] (10 ng ICV, first 10 days after injury) is “improved”. In addition, the “intensity of microglial activation” value in the experiment with ischemic brain injury [5] (10 ng, 48 hours after ischemic injury) is “significantly reduced”. Further, the “area of cortical infarction” value in the experiment on ischemic brain injury [5] (dose response) is “bell-shaped dose-response effect”. For the same compound, the “neuroprotection in cortex, thalamus, striatum and dentate gyrus” value with ischemic brain injury [5] (single ICV dose of 10 ng 2 hours after ischemic injury, assessed 5 days after) was “significant neuroprotection”. In addition, the CA1-CA4 hippocampal neurons entry with ischemic brain injury [5] (single ICV dose of 10 ng 2 hours after ischemic injury) is reported as “not protected”.
